In patent US10471025B2, “Compositions for use in treating parkinson's disease and related disorders” (Technophage, Investigação E Desenvolvimento Em …, priority 2015, dated 2019):
Several values for one entry are separate records, joined by “and”; a condition that tells them apart may be missing. Equal values may be shown once. Entries after “also recorded” stand apart in the source; their conditions may differ. Read-outs that look alike come from different tables or passages of the source.

What was measured:
[1] = system: 6-OHDA treated zebrafish larvae; experiment: Rescue of Tyrosine hydroxylase (TH)-positive dopaminergic neurons in 6-OHDA zebrafish larvae; format: in vivo; conditions: for Neurorescue: TH+ neurons at optimal dose, p; for Neuroprotective effect / recovery of TH+ neurons: at the optimal concentration of each molecule
Method: The 7 candidates also were tested in terms of rescue of dopaminergic neurons positive for Tyrosine hydroxylase (Th) in the substancia nigra pars compacta of the test animals. […] Results were normalized for healthy control values (healthy control=100% of neurons). As a control, zebrafish were treated with only the vehicle, ascorbic acid. ‘6-OHDA_ represents results in zebrafish receiving no treatment.
FIGS. 6E-6G show representative Z-projections of confocal stacks of whole-mount anti-TH immunohistochemistry in 6 days post-fertilization (dpf) of zebrafish larvae (age of the fish) control (FIG. 6E), 6-OHDA (FIG. 6F), and tapentadol treated-larvae (FIG. 6G).

[2] = system: 6-OHDA treated zebrafish larvae; experiment: Co-administration with L-Dopa, total distance 6-OHDA larvae move; format: in vivo; conditions: total distance; L-Dopa 250 or 125 μM
[3] = in DMSO; cited from earlier work
[4] = system: 6-OHDA treated zebrafish larvae; experiment: Locomotor behavior rescue (total distance moved, number of jumps) in 6-OHDA zebrafish PD model; format: in vivo; conditions: for Optimal concentration: behavioral experiments and TH+ cell counts; for Number of jumps: concentration validated as recovering the 6-OHDA induced behavior / Total distance travelled, difference between treated larvae and disease control: zebrafish, in vivo
Text: To model Parkinson ̆s disease (PD), a neurotoxin 6-OHDA (6-hyroxydopamine) based method was used in zebrafish and in mice. In this model, 6-OHDA-lesions induce motor manifestations in zebrafish and in mice, such as reduced locomotor ability, and the loss of dopaminergic neurons. Based on the 6-OHDA PD zebrafish model, compounds from a small molecules library were screened for rescue of the parkinsonian phenotype (Example 1, see below).
The screen was based on both the recovery of impaired locomotor behavior and dopaminergic neuronal loss.
Values were normalized for the mean of disease state in each experiment (disease=1). Each plot contains data from 3 independent experiments with a total of 24 larvae. As a control, zebrafish were treated with only the vehicle, ascorbic acid.
For these experiments, Tubingen (TU) wild-type zebrafish, a specific strain of wild-type zebrafish, were used.

rat = conditions: rat, cited from earlier work
[5] = system: 6-OHDA treated zebrafish larvae; experiment: LD50 / lethality in the disease context of the zebrafish model
mouse = conditions: mouse, cited from earlier work
[6] = cited from earlier work
COX-2 = target: T1, COX-2 (Homo sapiens, UniProt P35354); conditions: cited from earlier work
T1 sequence (P35354 18-604): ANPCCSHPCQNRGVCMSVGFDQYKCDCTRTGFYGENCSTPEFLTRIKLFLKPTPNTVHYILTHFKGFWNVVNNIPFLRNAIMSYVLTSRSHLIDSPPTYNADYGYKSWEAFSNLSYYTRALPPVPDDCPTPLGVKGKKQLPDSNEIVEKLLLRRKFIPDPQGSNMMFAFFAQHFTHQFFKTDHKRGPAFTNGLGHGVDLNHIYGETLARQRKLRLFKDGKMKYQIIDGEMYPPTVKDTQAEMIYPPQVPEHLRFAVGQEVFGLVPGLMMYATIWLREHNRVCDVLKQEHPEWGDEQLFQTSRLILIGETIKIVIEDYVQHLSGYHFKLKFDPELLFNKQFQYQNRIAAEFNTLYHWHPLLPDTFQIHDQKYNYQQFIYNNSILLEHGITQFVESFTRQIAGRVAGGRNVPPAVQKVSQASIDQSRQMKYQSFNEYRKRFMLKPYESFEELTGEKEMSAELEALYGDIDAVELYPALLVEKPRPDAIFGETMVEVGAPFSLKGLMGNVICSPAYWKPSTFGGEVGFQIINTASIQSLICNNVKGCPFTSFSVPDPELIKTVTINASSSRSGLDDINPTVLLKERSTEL

[7] = system: 6-OHDA treated zebrafish larvae; experiment: Freezing (duration of freezing periods, light/dark stimulus) in 6-OHDA zebrafish larvae; format: in vivo; conditions: for Freezing recovery: optimal concentrations, methylphenidate 25 μM; for Duration of freezing periods, recovery vs 6-OHDA treated larvae: tapentadol 48.5, stavudine 50, nabumetone 0.91 μM, L-Dopa treatment
Method: In the zebrafish model, the locomotor impairment was measured and related with bradykinesia in patients. Tests included evaluating ‘freezing_ in response to a light/dark stimulus. 6-OHDA induced larvae had fewer freezing episodes but spent longer periods in the frozen state. In previous studies, the duration of freezing episodes has been analyzed in PD patients. […] Nonetheless, it is an inhibitor of the neuronal dopamine transporter and since 6-OHDA needs DAT to enter the neuron and induce the disease, methylphenidate may be a false positive.
As FIGS. 9B-9C show, freezing recovery was tested using 7 candidate molecules at optimal concentrations, in an exemplary experiment with n=8 fish, and methylphenidate and amantadine at 25 ? M.

[8] = cited from earlier work; remark: listed apart in the source
[9] = in vivo; cited from earlier work
6-OHDA mouse model [10] = experiment: Cylinder test, 6-OHDA mice (Example 5); format: in vivo; set-up: Cylinder test: number of right turns: dose or concentration left out as unconfirmed
6-OHDA mouse model [11] = experiment: Rotarod test, unilateral striatal 6-OHDA mice (Example 5); format: in vivo; conditions: daily i.p., dosages tested (C1 and C2)
dogs = conditions: dog, in vivo, cited from earlier work
[12] = cited from earlier work; remark: listed apart in the source
6-OHDA mouse model [13] = experiment: Abnormal involuntary movements, 6-OHDA mice (Example 5); format: in vivo; conditions: mouse, in vivo
Method: This condition results in a range of involuntary movements that can be evaluated by video tracking analyses. […] Evaluations were performed during two independent trials, 30 and 90 minutes after treatment administration. […] Nonetheless, forelimb and orofacial involuntary movements are extremely hard to detect, and reading errors occur, considering the size of the animals. Total abnormal involuntary movements are the sum of all 4 different involuntary movements evaluated and is the parameter often reported in the literature.
As FIGS. 17A-17F show, abnormal involuntary movements were evaluated using the cylinder test 28 days post injection. […] Values mean ě SEM (n=5-8).

[14] = system: CY P1A2, CY P2C9, CY P2C19, CY P2D6, and CY P3A4; conditions: cited from earlier work
[15] = 0.01 to 11.4 μg/mL; cited from earlier work
healthy wild type mice = experiment: Toxicity assay, welfare and necropsy (Example 6); conditions: tramadol 10 mg/kg in combination with L-Dopa; L-Dopa 18 mg/kg; 24 h
Method: Their behavior was evaluated with open field tests for 1 h after i.p. injection. After 24 h, animals were sacrificed and necropsy was performed
9 week old NMRI female mice were used for this assay. Animals were tested for their welfare after two intraperitoneal injections of the test agents using the open field test. Necropsy was done after cervical dislocation. […] Benserazide at 12 mg/kg was administered 30 minutes prior to administration of these compounds, in all groups. Saline was given to the control group.
After benserazide administration, animals were monitored in the open field for 30 minutes for habituation. […] 24 hours after administration of the compounds, the animals were sacrificed and necropsy performed.
For administration of the various agents to the animals, two 700 ? L injections were administered 30 minutes apart.

[16] = oral 1,000-2,000 mg to steady state

COC(=O)C1=C(C)NC(C)=C(C(=O)OC(C)C)C1c1cccc2nonc12 (stereo not shown) [Isradipine]
Neurorescue [1]: confirmed
Effect of co-administration with L-Dopa on locomotor recovery [2]: lost its effect
Solubility [3]: 25 mg/ml in
Optimal concentration [4]: 0.045 µM
Effective concentration / peak, small range plot ([4]; phenotype recovery, total distance moved): 0.045 µM and 0.084 µM

COc1ccc2cc(CCC(C)=O)ccc2c1 [nabumetone]
Neurorescue [1]: confirmed
Neuroprotective effect / recovery of TH+ neurons [1]: confirmed; also recorded: Recovery was observed
LD50 (rat): (mouse) or 3880 mg/kg
Effect of co-administration with L-Dopa on locomotor recovery [2]: the same
Embryo lethality ([5]; 18 μM): no dead embryos
Embryo lethality ([5]; 27 μM): all of the embryos were dead
Solubility [3]: 50 mg/ml in
Locomotor behavior rescue (total distance moved, number of jumps), confirmation of screen ([4]; 7 candidate molecules, 3 independent experiments): strong candidates
Optimal concentration [4]: 0.9 µM
Number of jumps: concentration validated as recovering the 6-OHDA induced behavior [4]: 0.456 µM
Total distance travelled, difference between treated larvae and disease control [4]: ~200 mm
LD50 (mouse): 4290 mg/kg
Share of dose converted into unidentified metabolites ([6]; 1,000 mg oral dose): 50%
Share of dose converted to 6MNA ([6]; 1,000 mg oral dose): Approximately 35%
Absorption from the gastrointestinal tract ([6]; in vivo): well absorbed
COX-2 inhibition (COX-2): poor COX-2 inhibitor
Freezing recovery [7]: do not show an ability to recover freezing phenotype
Duration of freezing periods, recovery vs 6-OHDA treated larvae [7]: not recovered

COc1ccc2cc(CC(=O)O)ccc2c1 [6MNA, 6-methoxy-2-naphthylacetic acid]
Printed only as 'It is 0.2-0.3%' (after plasma protein binding) ([6]; concentrations typically achieved following 1,000 mg of nabumetone): 0.2-0.3%
Bound to plasma proteins ([6]; in vivo): more than 99%
Elimination half-life [6, 16]: approximately 24 hours
Mean plasma clearance [6, 16]: 20 to 30 mL/min
Inhibition of prostaglandin synthesis (COX-2; most likely through binding to the COX-2 and COX-1 receptors): potent inhibitor

COC(=O)C(c1ccccc1)C1CCCCN1 (stereo not shown) [Methylphenidate]
Freezing recovery [7]: more consistent freezing recovery

CC[C@@H](c1cccc(O[C@@H]2O[C@H](C(=O)O)[C@@H](O)[C@H](O)[C@H]2O)c1)[C@@H](C)CN(C)C [tapentadol-O-glucuronide]
AUC, fold higher compared with normal renal function ([8]; mild renal impairment (CLCR=50 to <80 mL/min)): 1.5 fold
AUC, fold higher compared with normal renal function ([8]; moderate renal impairment (CLCR=30 to <50 mL/min)): 2.5 fold
Mean accumulation factor ([8]; multiple (every 6 hour) dose study, 75 to 175 mg tapentadol): 1.8
AUC, fold higher compared with normal renal function ([8]; severe renal impairment (CLCR=<30 mL/min)): 5.5 fold
Blood-brain barrier crossing [9]: lower permeability through the blood brain barrier

Cc1cn([C@H]2C=C[C@@H](CO)O2)c(=O)[nH]c1=O [stavudine]
Neurorescue [1]: confirmed p < 0.09
Neuroprotective effect / recovery of TH+ neurons [1]: confirmed
Cylinder test: number of right turns (6-OHDA mouse model [10]; parameter disregarded): phenotypic recovery in a very similar way to L-Dopa
Cylinder test: number of rearings (6-OHDA mouse model [10]; vs 6-OHDA group, daily i.p.): did not show recovery
Cylinder test: percentage of animals with tremor (6-OHDA mouse model [10]; vs 6-OHDA group, daily i.p.): did not show recovery
Cylinder test: percentage of contralateral paw use (6-OHDA mouse model [10]; vs 6-OHDA group, daily i.p.): did not show recovery
Rotarod: latency to fall and speed, recovery (6-OHDA mouse model [11]): did not have an effect
LD50 (rat; in vivo, iv): 1,200 mg/kg
LD50 (rat; in vivo, po): 4,000 mg/kg
LD50 (rat): 4 g/kg (rat)
Effect of co-administration with L-Dopa on locomotor recovery [2]: not affected; also recorded: least effective; also recorded: not influenced
LD50 ([5]; 6-OHDA disease-induced zebrafish larvae): >10 mM
LD50 ([5]; 6-OHDA zebrafish larvae): > 10,000 μM
LD50 (dogs; iv): 1,680 mg/kg
LD50 (dogs; po): 2,000 mg/kg
Clearance ([12]; HIV-infected adult and pediatric patients, 1-hour IV infusion): 594 ± 164 mL/min
Accumulation with repeated administration ([12]; every 6, 8, or 12 hours): no significant accumulation
Renal clearance ([12]; healthy subjects receiving 80 mg PO): 272 mL/min
Renal elimination, share of the overall clearance ([12]; humans, regardless of the route): about 40%
Half-life ([12]; in adults): 48 to 90 min
Time of peak plasma concentrations after dosing ([12]; oral administration): ≤ 1 h
Therapeutic window ([4]; 6-OHDA zebrafish larvae): 50 to 70 µM
Optimal concentration [4]: 50 µM
Number of jumps: concentration validated as recovering the 6-OHDA induced behavior [4]: 50 µM
Total distance travelled, difference between treated larvae and disease control [4]: 400 mm
Induction of abnormal involuntary movements (6-OHDA mouse model [13]): None of the treatments, tapentadol or stavudine of the combination, induced involuntary movements
LD50 (mouse; in vivo, iv): 1,000 mg/kg
LD50 (mouse; in vivo, po): 1,000 mg/kg
Inhibition of major cytochrome P450 isoforms [14]: not considered to inhibit
Freezing recovery [7]: positive results; also recorded: reverted freezing
Duration of freezing periods, recovery vs 6-OHDA treated larvae [7]: recovered
Protein binding [15]: negligible

COc1cccc(C2(O)CCCCC2CN(C)C)c1 (stereo not shown) [tramadol]
Necropsy findings (healthy wild type mice): normal abdominal organs, with the exception of one that had a slight hyperemia in the small intestine
